# Data from US5496947A, “Quinolone carboxylic acid derivatives” (Dong Wha Pharmaceutical Industrial Co., Ltd., priority 1994, dated 1996).
# Like-named read-outs stand apart in the source and are kept apart here.
# Key:
# Format in all cases: cell-based
# Enterobacter cloacae = experiment: MIC, 2-fold dilution method in micro-well plate, E. cloacae; conditions: read-out: Minimum Inhibitory Concentration
# Protocol: (§1) The in vitro antibiotic activity of the present compound is measured using 2-fold dilution method with a micro-well plate and the bacteria are inoculated in about 10^5 cfu/ml after an overnight culture in a brain-heart infusion (BHI) broth at 37° C. The novel compounds of the present invention are converted to a hydrochloride salt form and diluted with a sterilized distilled water to make 10 mg/ml aqueous solution. After the mother liquor wherein the compound is diluted to the two-fold concentration has been obtained in the form of an aqueous solution, the respective 0.1 ml of diluted liquor is transferred to a well and is inoculated with 0.1 ml of the culture fluid to make about (10^5 -10^6)/2 cfu/ml.
# (§2) After cultivation at 37° C., the minimum inhibitory concentration (MIC) is measured and recorded in Table I-V.
# (§3) Table I-V show the minimum inhibitory concentrations (MIC).
# Enterobacter cloacae ATCC 23355
# [1] = tested on: Escherichia coli ATCC 25922; experiment: MIC, 2-fold dilution method in micro-well plate, E. coli
# Protocol: as §1, §2, §3
# Escherichia coli ATCC 25922
# [2] = tested on: Salmonella typhimurium ATCC 14028; experiment: MIC, 2-fold dilution method in micro-well plate, S. typhimurium; conditions: Salmonella enterica, read-out: Minimum Inhibitory Concentration
# Protocol: as §1, §2, §3
# Salmonella typhimurium ATCC 14028
# [3] = tested on: Citrobacter freundii ATCC 8090; experiment: MIC, 2-fold dilution method in micro-well plate, C. freundii
# Protocol: as §1, §2, §3
# Citrobacter freundii ATCC 8090
# [4] = tested on: Shigella sonnei ATCC 25931; experiment: MIC, 2-fold dilution method in micro-well plate, S. sonnei; conditions: S. sonnei ATCC25931, 37° C., read-out: Minimum Inhibitory Concentration
# Protocol: as §1, §2, §3
# Shigella sonnei ATCC 25931
# [5] = tested on: Proteus vulgaris ATCC 13315; experiment: MIC, 2-fold dilution method in micro-well plate, P. vulgaris; conditions: ATCC13315, read-out: Minimum Inhibitory Concentration
# Protocol: as §1, §2, §3
# Proteus vulgaris ATCC 13315
# [6] = tested on: Serratia marcescens ATCC 8100; experiment: MIC, 2-fold dilution method in micro-well plate, S. marcescens
# Protocol: as §1, §2, §3
# Serratia marcescens ATCC 8100
# [7] = tested on: Acinetobacter calcoaceticus; experiment: MIC, 2-fold dilution method in micro-well plate, A. calcoaceticus
# Protocol: as §1, §2
# Table I-V show the minimum inhibitory concentrations (MIC). […]
# [8] = tested on: Streptococcus faecalis ATCC 29212; experiment: MIC, 2-fold dilution method in micro-well plate, S. faecalis ATCC 29212; conditions: Enterococcus faecalis; S. faecalis ATCC29212, 37° C.; read-out: Minimum Inhibitory Concentration
# Protocol: as §1, §2, §3
# Streptococcus faecalis ATCC 29212
# [9] = tested on: Streptococcus pneumoniae ATCC 6303; experiment: MIC, 2-fold dilution method in micro-well plate, S. pneumoniae; conditions: S. pneuinoniae ATCC6303, 37° C., read-out: Minimum Inhibitory Concentration
# Protocol: as §1, §2, §3
# Streptococcus pneumoniae ATCC 6303
# [10] = tested on: Enterobacter aerogenes ATCC 13048; experiment: MIC, 2-fold dilution method in micro-well plate, E. aerogenes; conditions: Klebsiella aerogenes
# Protocol: as §1, §2, §3
# Enterobacter aerogenes ATCC 13048
# [11] = tested on: Streptococcus pyrogens ATCC 19615; experiment: MIC, 2-fold dilution method in micro-well plate, S. pyrogens; conditions: S. pyrogenes ATCC19615, 37° C., read-out: Minimum Inhibitory Concentration
# Protocol: as §1, §2, §3
# Streptococcus pyrogens ATCC 19615
# [12] = tested on: Haemophilus influenza ATCC 35056; experiment: MIC, 2-fold dilution method in micro-well plate, H. influenzae; conditions: H. influenzae ATCC35056, 37° C.; read-out: Minimum Inhibitory Concentration
# Protocol: as §1, §2, §3
# Haemophilus influenza ATCC 35056
# [13] = tested on: Pseudomonas aeruginosa ATCC 27853; experiment: MIC, 2-fold dilution method in micro-well plate, P. aeruginosa; conditions: P. aerugirnosa ATCC27853, 37° C., read-out: Minimum Inhibitory Concentration
# Protocol: as §1, §2, §3
# Pseudomonas aeruginosa ATCC 27853
# [14] = tested on: Streptococcus faecalis ATCC 19433; experiment: MIC, 2-fold dilution method in micro-well plate, S. faecalis ATCC 19433; conditions: Enterococcus faecalis; S. faecalis ATCC19433, 37° C.; read-out: Minimum Inhibitory Concentration
# Protocol: as §1, §2, §3
# Streptococcus faecalis ATCC 19433
# [15] = tested on: Shigella flexneri ATCC 12022; experiment: MIC, 2-fold dilution method in micro-well plate, S. flexneri; conditions: S. flexneri ATCC12022, 37° C., read-out: Minimum Inhibitory Concentration
# Protocol: as §1, §2, §3
# Shigella flexneri ATCC 12022
# [16] = tested on: Klebsiella pneumoniae ATCC 13883; experiment: MIC, 2-fold dilution method in micro-well plate, K. pneumoniae; conditions: ATCC13883, read-out: Minimum Inhibitory Concentration
# Protocol: as §1, §2, §3
# Klebsiella pneumoniae ATCC 13883
# [17] = E. coli ATCC25922, 37° C., read-out: Minimum Inhibitory Concentration
# [18] = ATCC8090, read-out: Minimum Inhibitory Concentration
# [19] = E. aerogenes ATCC13048, 37° C., read-out: Minimum Inhibitory Concentration
# [20] = ATCC8100, read-out: Minimum Inhibitory Concentration
# [21] = ATCC25922, read-out: Minimum Inhibitory Concentration
# [22] = ATCC13048, read-out: Minimum Inhibitory Concentration
SMILES,MIC (Enterobacter cloacae) [µg/mL],"MIC [1, 17] [µg/mL]",MIC [2] [µg/mL],MIC [4] [µg/mL],MIC [5] [µg/mL],"MIC [7, 18] [µg/mL]",MIC [8] [µg/mL],MIC [9] [µg/mL],"MIC [10, 19] [µg/mL]",MIC [11] [µg/mL],MIC [12] [µg/mL],MIC [13] [µg/mL],MIC [14] [µg/mL],MIC [15] [µg/mL],MIC [16] [µg/mL],"MIC [3, 18] [µg/mL]","MIC [6, 20] [µg/mL]","MIC [1, 21] [µg/mL]","MIC [10, 22] [µg/mL]",also measured
"Cl.O=C(O)c1cn(-c2ccncc2F)c2cc(N3CCNCC3)c(F)cc2c1=O [Example 1, 1-(3-fluoro-4-pyridyl)-6-fluoro-7-(1-piperazinyl)-1,4-dihydro-4-oxoquinoline-3-carboxylic acid hydrochloride]",0.625,1.25,0.625,0.625,0.625,0.625,5,2.5,1.25,5,0.625,0.625,5,0.625,0.625,,,,,"MIC ([3]; C. freundii ATCC8090, 37° C., read-out: Minimum Inhibitory Concentration): 1.25 µg/mL; MIC ([6]; S. marcescens ATCC8100, 37° C., read-out: Minimum Inhibitory Concentration): 0.313 µg/mL"
"CN1CCN(c2cc3c(cc2F)c(=O)c(C(=O)O)cn3-c2ccncc2F)CC1.Cl [Example 2, 1-(3-fluoro-4-pyridyl)-6-fluoro-7-(4-methyl-1-piperazinyl)-1,4-dihydro-4-oxoquinoline-3-carboxylic acid hydrochloride]",0.625,1.25,0.625,0.625,0.625,0.625,5,10,1.25,10,0.625,0.625,5,0.625,0.625,0.625,0.625,,,
"CC1CN(c2cc3c(cc2F)c(=O)c(C(=O)O)cn3-c2ccncc2F)CCN1.Cl (centres unmarked) [Example 3, 1-(3-fluoro-4-pyridyl)-6-fluoro-7-(3-methyl-1-piperazinyl)-1,4-dihydro-4-oxoquinoline-3-carboxylic acid hydrochloride]",0.625,,0.625,0.625,0.625,0.625,5,5,,10,1.25,0.625,2.5,2.5,0.625,1.25,0.625,0.625,1.25,
"CC1CN(c2cc3c(cc2F)c(=O)c(C(=O)O)cn3-c2ccncc2F)CC(C)N1.Cl (centres unmarked) [Example 4, 1-(3-fluoro-4-pyridyl)-6-fluoro-7-(3,5-dimethyl-1-piperazinyl)-1,4dihydro-4-oxoquinoline-3-carboxylic acid hydrochloride]",0.625,,1.25,0.625,0.625,,5,10,,10,1.25,0.625,5,1.25,0.625,1.25,1.25,1.25,1.25,"MIC ([7]; A. calcoaceticus ATCC8090 (as in tables), 37° C., read-out: Minimum Inhibitory Concentration): 2.5 µg/mL"
